Reference: US20080153872A1, “Bis-(Coumarin) Compounds With Anti-Inflammatory Activity” (priority 2005, published 2008)

Tests used:
[1] = target: T1, CysLT1 receptor (Homo sapiens, UniProt Q9Y271); experiment: Human cysteinyl leukotriene receptor 1 (CysLT1) radioligand binding assay; details: 10 μM concentration; CHO-K1 cells
T1 construct: expressed in transfected cells; host or cells: CHO-K1
T1 sequence (Q9Y271 1-337): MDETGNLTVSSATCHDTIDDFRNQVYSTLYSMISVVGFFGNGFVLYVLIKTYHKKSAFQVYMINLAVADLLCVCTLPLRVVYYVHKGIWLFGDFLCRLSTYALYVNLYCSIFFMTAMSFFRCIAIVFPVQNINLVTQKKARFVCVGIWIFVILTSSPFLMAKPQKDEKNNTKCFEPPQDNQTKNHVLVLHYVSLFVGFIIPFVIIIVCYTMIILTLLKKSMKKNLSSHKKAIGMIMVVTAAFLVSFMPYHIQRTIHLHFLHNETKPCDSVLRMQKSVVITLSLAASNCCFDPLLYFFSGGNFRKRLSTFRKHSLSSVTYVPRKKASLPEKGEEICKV
Protocol: (§1) All compounds were dissolved in dimethyl sulfoxide (DMSO). Final concentration of the DMSO in all tests was 1% (v/v). Inhibition in all tests is considered preferred if it exceeds 50% at 10 μM concentration (or less).
CysLT1 receptor is involved in immune diseases such as asthma, and has clinical significance as a point of intervention in asthma therapy. CysLT1 receptor is expressed in CHO-K1 cells (Chinese hamster ovary cells K1 clone). This is a competitive radioligand binding assay where substances compete with [^3H]-labeled Leulcotirene D4 (LTD4). Radioactive substance is measured with scintillation counting. Percentage of inhibition is calculated from the total radioactivity of the sample.

[2] = test system: Balb/cJ mice; experiment: LPS induced pulmonary neutrophilia in mice; type: in vivo, mouse; details: LPS challenged mice; i.n., i.p. or per os
Protocol: Male Balb/cJ mice (Iffa Credo, France) weighing ˜25 g are randomly grouped into a negative control group, positive control group and groups treated with compounds to be assayed). Test compounds, as well as vehicle (DMSO+0.5% methyl-cellulose) (all from Sigma), are administered i.n., ip. or per os two hours prior to administration of lipopolysaccharide (LPS) (E. coli, serotype 0111:B4, Sigma) or two hours prior and two hours after administration of LPS. Test compounds are administered at a single dose (two hours prior the challenge) or divided into two doses (two hours prior and two hours after the challenge). LPS solution in phosphate buffered saline (PBS) (Sigma) is administered intranasally in volume of 60 μL at concentration of 33,33 μg/mL, to all experimental groups except the negative control group, which received the same volume (60 μL) of vehicle PBS. During the challenge, animals were anaesthetized by using intraperitoneal anaesthesia. Animals are euthanized by i.p. anesthesia overdose approximately 24 hours after application of LPS to obtain bronchoalveolar lavage fluid (BALF), which is used to determine total protein concentration as well as concentrations of cytokines, such as IL-1β and TNF-α, absolute number of cells, and percentage of neutrophils in BALF. Bronchoalveolar lavage (BAL) is performed by infusing 1 mL of PBS divided into 3 separate volumes (0.4, 0.3 and 0.3 ml) through trachea into the lungs. The fluid is immediately withdrawn and the cell suspension stored into previously prepared 1.5 mL Eppendorf tube. Bronchoalveolar lavage fluid (BALF) is then centrifuged at […] for 5 min (4° C.). Cells are resuspended in 700 μL of PBS. To prepare cytospins, 320 μL of suspension is centrifuged at 250 rpm for 10 min (Cytospin-3, Shandon Instruments). Cells are stained with Dif-Quik (Dade Behring) to determine percentage of neutrophils by counting of at least 200 cells. The remaining resuspended cells are used for total cell count in BALF analysis (Sysmex SF 3000). […] Accumulation of granulocytes and mononuclear cells in peribronclhial (PB) and perivascular (PV) lung tissue areas and alveolar spaces is monitored.
Results can be expressed as (I) decrease of absolute cell number per mL in BALF, (II) decrease of number of neutrophils per mL in BALF, (III) reduction of relative number (percentage) of neutrophils in BALF, (IV) reduction of cytokine concentrations in BALF, as well as (V) suppression of accumulation of granulocytes and mononuclear cells in peribronchial (PB) and perivascular (PV) lung tissue areas and in alveolar spaces by pathohistological scoring of treated animals compared to positive control (LPS stimulated, but untreated animals).

[3] = test system: Human prostanoid receptor; experiment: Human prostanoid receptor assay ([3H]-PGD2 competition); type: binding; details: 10 μM concentration; CHO-K1
Protocol: as §1
Human prostanoid receptor is expressed in Chinese hamster ovary cell line, clone K1 (CHO-K1). Substances and radioactive competitor (tritium labelled Prostaglandin D2 in 1.7 nM concentration) are incubated with cells in HEPES buffer for 2 hours at 25° C. in the presence of manganese ions. Level of the bound PGD2 is measured by scintillation counting, and competition is calculated from comparing the total amount of the bound PGD2 in treated versus control cells. Prostanoids are involved in many physiological and pathological processes, from inflammation to pain.

[4] = test system: human PDE4; experiment: Human PDE4 assay (U937); type: biochemical; details: 10 μM concentration
Protocol: as §1
PDE4 assay. PDE is implicated in diseases such as chronic obstructive pulmonary disease and neutrophilia. Human monocytic leukemia cell line U937 is pre-incubated at 25° C. in Tris-HCl buffer containing magnesium ions for 15 minutes. 1.01 μM tritium labeled cyclic adenosine monophosphate (cAMP) is added as substrate, followed by incubation at 25° C. for 20 minutes. Percentage of inhibition is calculated by comparing the adenosine levels in supernatant which is formed from cAMP in treated versus control cells.

[5] = test system: CD1 mice; experiment: PMA induced ear oedema in CD1 mice; type: in vivo, mouse; details: topical, single dose of 250 or 100 μg/15 μL/ear; statistically significant vs positive control
Protocol: Male CD1 mice (Iffa Credo, France) weighing ˜35-40 g were randomly grouped (n=8 in vehicle treated test group, dexamethasone treated control group as well as in groups treated with compounds to be assayed). Test compounds, dexamethasone as well as vehicle (Trans-phase Delivery System, containing benzyl alcohol 10%, acetone 40% and isopropanol 50%) (all from Kemika, Croatia), were administered topically to the internal surface of the left ear thirty minutes prior to administration of phorbol 12-myristate 13-acetate (PMA) (Alexis biochemicals, USA). Test compounds were administered at a single dose of 250 or 100 μg/15 μL/ear and dexamethasone at a single dose of 50 μg/15 μL/ear. Thirty minutes later, 0.01% PMA solution in acetone was applied topically to the same area of each animal in a volume of 12 μL/ear. During the treatment and challenge, animals were anaesthetized by using inhalation anaesthesia. Six hours after the challenge, animals were euthanized by asphyxiation in 100% CO2 atmosphere. For assessing the auricular oedema, 8 mm discs were cut out of left and right auricular pinna and weighed. The degree of oedema was calculated by subtracting the weight of 8 mm disc of the untreated ear from that of the treated contralateral ear.

In the case of `CC(=O)C(c1c(O)c2cccc(C(C)C)c2oc1=O)c1c(O)c2cccc(C(C)C)c2oc1=O` [Example 19], the “CysLT1 receptor, competition with [3H]-LTD4” value (from here on “CysLT1 receptor, competition”) [1] is reported as “significantly relevant activity”, the “reduction of percentage of neutrophils and/or their total number in BALF and/or by histological scoring” value [2] is reported as “statistically significant reduction” and the “human prostanoid receptor, competition with tritium labelled PGD2” value (shortened to “human prostanoid receptor, competition”) [3] is reported as “significantly relevant activity”. The “inhibition of human PDE4 activity” value [4] was “significantly inhibited” and the “suppression of ear oedema” value [5] was “considered active”.

For `CC(C)c1cccc2c(O)c(C(CO)c3c(O)c4cccc(C(C)C)c4oc3=O)c(=O)oc12` [Example 30], the “CysLT1 receptor, competition” value [1] was “significantly relevant activity”, the “reduction of percentage of neutrophils and/or their total number in BALF and/or by histological scoring” value [2] was “statistically significant reduction” and the “human prostanoid receptor, competition” value [3] was “significantly relevant activity”. For the same molecule, the “inhibition of human PDE4 activity” value [4] was “significantly inhibited” and the “suppression of ear oedema” value [5] was “considered active”.

In the case of `CC(C)c1cccc2c(O)c(C(C(=O)OCCO)c3c(O)c4cccc(C(C)C)c4oc3=O)c(=O)oc12` [Example 50], the “CysLT1 receptor, competition” value [1] is reported as “significantly relevant activity”, the “reduction of percentage of neutrophils and/or their total number in BALF and/or by histological scoring” value [2] is reported as “statistically significant reduction” and the “human prostanoid receptor, competition” value [3] is reported as “significantly relevant activity”. The “inhibition of human PDE4 activity” value [4] was “significantly inhibited” and the “suppression of ear oedema” value [5] was “considered active”.
